In patent US20180369186A1, “METHOD FOR MODULATING AUTOPHAGY AND APPLICATIONS THEREOF” (JAWAHARLAL NEHRU CENTRE FOR ADVANCED SCIENTIFIC RESEARCH, priority 2015, published 2018):

What was measured:
[1] = test system: mcherry-Salmonella typhimurium SL1344; assay: Live cell microscopy of Salmonella replication in HeLa cells; assay type: cell-based; settings: GFP-LC3 transfected HeLa; vs untreated samples
Method: GFP-LC3 transfected HeLa cells is infected with mcherry-Salmonella typhimurium SL1344 for 15 minutes (MOI-400) and is treated with gentamycin for 10 minutes. The cells are then washed with 1× PBS and changed to either only media (a) and media containing Acacetin (b) and imaged by FV10i-olympus confocal live cell imaging microscope, using 60× water immersion lens, with confocality aperature set to 1.0. Images are taken at an interval of 15 minutes. (c) The intensity of the Red channel denoting the mcherry tagged S. typhimuriumis measured using image J—Stacks T function (intensity of red channel signifies the replication of the S. typhimurium over time). The replication of Salmonella in Acacetin treated samples is restricted as compared to that of untreated samples (FIG. 15)

[2] = test system: mcherry Salmonella typhimurium; assay: Co-localization of GFP-LC3 / p62 with mcherry Salmonella in HeLa cells; assay type: cell-based, human
Method: HeLa cells are transfected with GFP-LC3 using lipofectamine 3000. After 24 hours, cells are infected with Salmonella typhimurium WT strain SL1344 with an MOI of 400 for 15 minutes followed by gentamycin treatment at the concentration of 100 μg/ml for 10 minutes to kill the extracellular bacteria.
The cells are treated with and without Acacetin and incubated for different time points (1, 2, 4 and 6 hours) at 37° C. Quantitation of LC3 co-localization with Salmonella typhimurium SL1344 is done using ImageJ-Cell counter option (FIG. 14), to check whether with compound (Acacetin) treatment more autophagy machinery is recruited towards the bacteria.

[3] = test system: Salmonella typhimurium SL1344; assay: Growth curve of Salmonella typhimurium SL1344; assay type: cell-based; settings: Luria Broth, 10 hours
Method: A single colony of Salmonella typhimurium WT strain SL1344 grown overnight at 37° C. is diluted in Luria Broth media to get an O.D of 0.2. The diluted culture is used for treatments with Acacetin and Acacetin with gentamycin (100 μg/ml). The growth curve of the culture is obtained by measuring the absorbance at 600 nm using varioskan Flash Multiplate Spectrophotometer at 300 rpm and O.D taken at every 30 minutes interval for 10 hours is plotted using GraphPad Prism.

[4] = test system: Salmonella typhimurium SL1344; assay: Burden assay: intracellular Salmonella CFU in U1752 and HeLa cells; assay type: cell-based
Method: U1752 cell line and HeLa cell line are infected with Salmonella typhimurium SL1344, and grown overnight in micro-aerophilic condition, at an MOI of 400 for one hour. The cells are treated with media containing Gentamycin at the concentration of 100 μg/ml for 2 hours to kill the extracellular bacteria. The cells are then treated with compounds and incubated for ?hours to 4 hours. At the end, the cells are lysed using lysis buffer (0.1% SDS, 1% Triton X-100, 1× PBS) and the intercellular Salmonella is plated and the CFU is counted. The CFU of Salmonella in the Acacetin treated cells is reduced by almost 2 fold compared to that of the untreated cells. Statistical analysis of the results is done using Graphpad prism—two tailed T test (FIG. 12)

Pot1-GFP (peroxisomes) = assay: Pot1-GFP pexophagy assay; assay type: cell-based, S. cerevisiae; settings: starvation medium; vs untreated cells
Method: Pot1-GFP positive strains are allowed to grow till the A600 reached 0.8-1 in YPD. Peroxisome biogenesis is induced by growing these cells in oleate medium (0.1% oleate, 0.5% Tween-40, 0.25% yeast extract, 0.5% peptone, and 5 mM phosphate buffer) for 12hours. Cells are harvested, washed twice to remove traces of oleate and transferred to starvation medium without nitrogen, at inoculum density A600 3, to induce pexophagy. Cells are collected at various time intervals after pexophagy induction and processed by TCA method.
Pot1-GFP positive strains are allowed to grow in yeast extract peptone dextrose (YPD) (2% dextrose, 2% peptone and 1% yeast extract) till the Absorbance at 600 nm reaches 0.6-0.8. Peroxisome biogenesis is induced by growing these cells in YPG medium (1% yeast extract, 2% peptone, 3% glycerol) for 12 hours.
Cells are harvested, washed twice to remove traces of oleate and transferred to starvation medium with and without Acacetin, at. inoculum density Absorbance at 600 nm 3/ml, to induce pexophagy. Cells are collected at various time intervals after pexophagy induction and processed by TCA precipitation.

[5] = test system: HeLa cells (autophagosomes and autolysosomes); assay: Tandem RFP-GFP-LC3B (traffic light) assay in HeLa cells; assay type: cell-based, human; settings: ptf-LC3 transfected HeLa; 2 hours
Method: Transfection is done on a 60 mm dish with HeLa cells at 60-70% confluency. Cells were transfected with tandem RFP-GFP-MAP1LC3B construct (Addgene plasmid #21074) using 5 μl of Lipofectamine 2000 (11668-019, Invitrogen) and 2.5 μg of DNA (2:1 ratio) diluted in 100 μl of OPTI-MEM (31985-070, Invitrogen) separately. 72 hours after transfection cells are either left untreated or treatment with various concentrations of Bay11-7082 ZPCK is done for 2 hours. Starvation is induced by treating cells with Earle's balanced salt solution (EBBS). After treatment, cells are fixed in 4% paraformaldehyde and permeabilized using 0.25% Triton X-100, The coverslip is mounted with […] antifade reagent (H-1000, Vector laboratories). Imaging for HeLa cells is carried out using Delta vision microscope (Olympus 60×/1.4, Plan ApoN, excitation and emission filter Cy5, FITC and TRITC, polychroic Quad).
For tandem RFP-EGFP-LC3 assay, sub-confluent cells are seeded in 60 mm dishes, transfected with ptf LC3 construct and allowed to express for 24 h. Later, cells are trypsinized, reseeded (10^5 cells) and allowed to attach on cover slips in a 12 well plate.
For mammalian cell microscopy, after 2 h of treatment, coverslips are fixed using 4% paraformaldehyde (PFA) (Sigma) and permeabilized using Triton X-100 (0.2%, HiMedia). Coverslips are mounted using antifade, Vectashield (Vector laboratories). For antibody staining, coverslips are blocked in 5% BSA for 1 h, incubated in primary antibody overnight and subsequent probing with fluorescent conjugated antibody. Coverslips are mounted using antifade, Vectashield (Vector laboratories).
Images are acquired using DeltaVisionElitewidefield microscope (API, GE) with following filters: DAPI (390/18 and 435/48), FITC (490/20 and 529/38), TRITC (542/27 and 594/45) and Cy5 (632/22 and 676/34). Images are processed using DV SoftWoRX software. Autophagosome (yellow) and autolysosome (red) are counted using Cell Counter plug-in in ImageJ software (NIH) and graphically represented as fold difference versus untreated (FIG. 3E).
Sub-confluent HeLa and/or SH-SY5Y cells are seeded into 60 mm cell culture dishes, then transfected with ptf LC3 construct and/or siRNA and allowed to express for 48 h. Cells are trypsinized, seeded again on poly-D-lysine coated cover slips in a 12 or 24 well plates and allowed to attach. After appropriate treatments, the coverslips containing cells are processed for imaging. For immunofluorescent antibody staining, the cover slips are incubated in primary antibody at 4° C. for overnight followed by secondary antibody incubation at room temperature.
For imaging the mammalian cells, after appropriate treatments, coverslips containing cells are fixed using 4% paraformaldehyde (PFA) (Sigma) and then permeabilized using Triton X-100 (0.2%, HiMedia). On slide, coverslips are mounted using antifade, Vectashield mounting medium (Vector laboratories). For antibody staining, coverslips are blocked using 5% BSA for 1 h at room temperature, then incubated with primary antibody at 4° C., overnight and then subsequently probed with corresponding fluorescent dye conjugated secondary antibody.

COc1ccc(-c2cc(=O)c3c(O)cc(O)cc3o2)cc1 [Acacetin, 5,7-dihydroxy-2-(4-methoxyphenyl)chromen-4-one]
replication of Salmonella (red channel intensity) [1]: restricted
temporal recruitment of LC3 to mcherry Salmonella typhimurium [2]: increases temporal recruitment of LC3
temporal recruitment of p62 to mcherry Salmonella typhimurium [2]: increased temporal recruitment of p62
anti-microbial activity against Salmonella typhimurium SL1344 [3]: does not have any anti-microbial activity
functionality in Atg5 KO HeLa cell line ([4]; Atg5 KO HeLa): non-functionality
reduction of CFU of intracellular Salmonella vs untreated ([4]; U1752 and HeLa cell lines, MOI 400): ~2 fold
accumulation of free GFP over time (pexophagy) (Pot1-GFP (peroxisomes)): enhanced accumulation of free GFP
number of autolysosomes (red dots) [5]: increase in the number of autolysosomes
